This is an account of results in paper PMC12022909, “A Multicomponent Reaction-Based Platform Opens New Avenues in Aryl Hydrocarbon Receptor Modulation” (ACS Central Science, 2025).

For one data set, the system named is HEK293T cells. Briefly: Cell viability (Annexin V-APC, flow cytometry) in HEK293T cells. The class given is cell-based. As to conditions: 24 h. Here is the method: (§1) A phosphatidylserine exposure was used to determine cell viability. Cells were washed with PBS, pelleted, and then incubated with annexin binding buffer containing Annexin V-APC (Life Technologies) for 15 min in the dark. Then, samples were analyzed by flow cytometry using FACSCanto II and FACSDiva (BD Biosciences, Franklin Lakes, NJ, USA). Data represents the percentage of non - apoptotic cells (Ann -APC-).
(§2) The cytotoxicity of a selection of the synthesized compounds was assessed after 24 hours of treatment in two human cell lines, Jurkat and HEK293T, coming from either tumoral T-cell lymphocytes or non-tumoral embryonic kidney fibroblasts, respectively. […]
(§3) the pro-apoptotic activity was not significant below 10 µM for most compounds in both cell lines, except for 5i, 5k and 5l in both cell lines, as well as 9a in Jurkat and 5e HEK293T cells (Figure S35A-B).
(§4) Moreover, the cytotoxicity of compounds 4d, 5b, 5h, 8, 10, and 12d at a higher concentration (100 µM) was assessed in both cell lines, Jurkat and HEK293T. The cytotoxicity of compounds 5b, 5h, and 12d could not be properly tested as the compounds were not soluble […]
(§5) effects observed for compound 4d in Jurkat cells and compound 8 in HEK293T cells (Figure S35C).
(§6) Figure S35. A) Jurkat and B) HEK293T cells were treated with 1 and 10 µM doses of the corresponding compound for 24 hours. Indicated doses of fluorizoline were used as a positive control of cell death. C) Jurkat and HEK293T cells were treated with 100 µM of the corresponding compound for 24 hours. Viability was measured by flow cytometry, and it is expressed as the mean ± SEM (n = 3) of the percentage of non -apoptotic cells (Ann-APC-). * p < 0.05, ** p < 0.01 *** p < […]
(§7) (1 picture or pasted object on this page, not shown here)
On the technique in general: Flow cytometry measures light scatter and fluorescence of single cells or particles in a stream.

For a further data set, the system named is HaCaT cells. Briefly: UVA phototoxicity, caspase 3 activity in HaCaT cells. The data set is classed as cell-based, human. As to conditions: for UVA radiation-induced caspase activity (phototoxicity): HaCaT, 1 h, UVA 5 J/cm2. As for the experimental part: Irradiation with UVA and caspase 3 activity measurement […]
culture media was exchanged with PBS and the cells were sham or UVA (5 J/cm2) irradiated using the BS-02 irradiation chamber (Opsytec Dr. Gröbel, Ettlingen Germany). Media was added to the cells and after 4 h incubation, caspase 3 activity was measured as described previously.[33] Protein quantification was done with the Bio-Rad DC protein assay kit (Bio-Rad Laboratories, Hercules, CA) according to the manufacturer protocol.
We compared the phototoxic potential of five of our test compounds (8, 10, 5b, 5h, 4b) as well as the FDA-approved AhR activator […]
induced caspase activity at a concentration of 100 nM (Figure S36A). At a 10-fold higher concentration (1 µM) two of the test compounds […]
Figure S36. […] For statistical analysis a two-way ANOVA (Tukey post-hoc) was performed and data are shown as mean ± SEM. (*, p ≤ 0.05). […]

A further data set concerns Jurkat cells. Briefly: Cell viability (Annexin V-APC, flow cytometry) in Jurkat cells. The class given is cell-based. As to conditions: 24 h. As for the experimental part:
as §1, §2, §3, §4, §5, §6, §7

On to `CCOc1c2[nH]c3ccccc3c2cc2[nH]c3ccccc3c12` [compound 8, 6-ethoxy-ICZ], for which the entries for the “cytotoxicity / pro-apoptotic activity at 100 µM” value with HEK293T cells and with Jurkat cells were “slight cytotoxic effects” and “minimal pro-apoptotic activity”, respectively. Further, in the data set on HaCaT cells, the “overlap between effective and toxic concentrations” value was “minimal overlap”. The “UVA radiation-induced caspase activity (phototoxicity)” value was “neither tapinarof nor our 6-ICZ compounds enhanced” in the data set with HaCaT cells (100 nM) and “exhibited similar effects to FICZ” in the data set with HaCaT cells (1 µM).
